Measurements published in ChEMBL document CHEMBL1145592, “Pleuromutilin derivatives having a purine ring. Part 1: new compounds with promising antibacterial activity against resistant Gram-positive pathogens” (2008).
Values after ≈ are worked out from the molar mass of the structure shown.

Experiments:
Type in all cases: functional
Streptococcus pyogenes = test: Antibacterial activity against Streptococcus pyogenes ATCC 12344
Enterococcus faecium = test: Antibacterial activity against vancomycin-resistant Enterococcus faecium KU1778
Staphylococcus aureus [1] = test: Antibacterial activity against methicillin-resistant Staphylococcus aureus KMP9
Staphylococcus aureus [2] = test: Antibacterial activity against methicillin-susceptible Staphylococcus aureus Smith
Streptococcus pneumoniae [3] = test: Antibacterial activity against penicillin-susceptible Streptococcus pneumoniae ATCC 49619
Moraxella catarrhalis = test: Antibacterial activity against Moraxella catarrhalis K1209
Haemophilus influenzae = test: Antibacterial activity against Haemophilus influenzae TH13
Streptococcus pneumoniae [4] = test: Antibacterial activity against penicillin-resistant Streptococcus pneumoniae KT2524
Staphylococcus aureus [5] = test: Antibacterial activity against methicillin-susceptible Staphylococcus aureus Smith infected iv dosed mouse 1 hr after inoculation

SMILES | MIC (Streptococcus pyogenes) | MIC (Enterococcus faecium) | MIC (Staphylococcus aureus [1]) | MIC (Staphylococcus aureus [2]) | MIC (Streptococcus pneumoniae [3]) | MIC (Moraxella catarrhalis) | MIC (Haemophilus influenzae) | MIC (Streptococcus pneumoniae [4]) | ED50 (Staphylococcus aureus [5])
C=C[C@]1(C)C[C@@H](OC(=O)CSC2CCN(C(=O)CCn3cnc4c(N5CCC(N)C5)ncnc43)CC2)[C@]2(C)[C@H](C)CC[C@]3(CCC(=O)[C@@H]32)[C@@H](C)[C@@H]1O (stereo partly drawn) | 0.016 µg/mL (≈ 0.0217 µM) | 0.032 µg/mL (≈ 0.0435 µM) | 0.125 µg/mL (≈ 0.17 µM) | 0.063 µg/mL (≈ 0.0856 µM) | 0.016 µg/mL (≈ 0.0217 µM) | 0.032 µg/mL (≈ 0.0435 µM) | 1 µg/mL (≈ 1.36 µM) | 0.032 µg/mL (≈ 0.0435 µM) | –
C=C[C@]1(C)C[C@@H](OC(=O)CSC2CCN(C(=O)CCn3cnc4c(N5CCC(N(C)C)CC5)nc(N)nc43)CC2)[C@]2(C)[C@H](C)CC[C@]3(CCC(=O)[C@@H]32)[C@@H](C)[C@@H]1O | 0.032 µg/mL (≈ 0.0403 µM) | 0.125 µg/mL (≈ 0.158 µM) | 0.25 µg/mL (≈ 0.315 µM) | 0.25 µg/mL (≈ 0.315 µM) | 0.063 µg/mL (≈ 0.0794 µM) | 0.063 µg/mL (≈ 0.0794 µM) | 2 µg/mL (≈ 2.52 µM) | 0.063 µg/mL (≈ 0.0794 µM) | 1.72 mg/kg
C=C[C@]1(C)C[C@@H](OC(=O)CSC2CCN(C(=O)CCn3cnc4c(N5CCC(NC)C5)nc(N)nc43)CC2)[C@]2(C)[C@H](C)CC[C@]3(CCC(=O)[C@@H]32)[C@@H](C)[C@@H]1O (stereo partly drawn) | 0.032 µg/mL (≈ 0.0418 µM) | 0.25 µg/mL (≈ 0.327 µM) | 1 µg/mL (≈ 1.31 µM) | 0.25 µg/mL (≈ 0.327 µM) | 0.063 µg/mL (≈ 0.0823 µM) | 0.125 µg/mL (≈ 0.163 µM) | 1 µg/mL (≈ 1.31 µM) | 0.063 µg/mL (≈ 0.0823 µM) | 1.72 mg/kg
C=C[C@]1(C)C[C@@H](OC(=O)CSC2CCN(C(=O)CCn3cnc4c(N5CCC(NC)C5)ncnc43)CC2)[C@]2(C)[C@H](C)CC[C@]3(CCC(=O)[C@@H]32)[C@@H](C)[C@@H]1O (stereo partly drawn) | 0.016 µg/mL (≈ 0.0213 µM) | 0.032 µg/mL (≈ 0.0427 µM) | 0.25 µg/mL (≈ 0.333 µM) | 0.063 µg/mL (≈ 0.084 µM) | 0.016 µg/mL (≈ 0.0213 µM) | 0.063 µg/mL (≈ 0.084 µM) | 2 µg/mL (≈ 2.67 µM) | 0.032 µg/mL (≈ 0.0427 µM) | 1.61 mg/kg
C=C[C@]1(C)C[C@@H](OC(=O)CSC2CCN(C(=O)CCn3cnc4c(N5CCC(NC)CC5)nc(N)nc43)CC2)[C@]2(C)[C@H](C)CC[C@]3(CCC(=O)[C@@H]32)[C@@H](C)[C@@H]1O | 0.063 µg/mL (≈ 0.0809 µM) | 0.5 µg/mL (≈ 0.642 µM) | 2 µg/mL (≈ 2.57 µM) | 0.5 µg/mL (≈ 0.642 µM) | 0.125 µg/mL (≈ 0.16 µM) | 0.25 µg/mL (≈ 0.321 µM) | 2 µg/mL (≈ 2.57 µM) | 0.25 µg/mL (≈ 0.321 µM) | 1.41 mg/kg
C=C[C@]1(C)C[C@@H](OC(=O)CSC2CCN(C(=O)CCn3cnc4c(N5CCC(CNC)C5)nc(N)nc43)CC2)[C@]2(C)[C@H](C)CC[C@]3(CCC(=O)[C@@H]32)[C@@H](C)[C@@H]1O (stereo partly drawn) | 0.032 µg/mL (≈ 0.0411 µM) | 0.5 µg/mL (≈ 0.642 µM) | 4 µg/mL (≈ 5.13 µM) | 0.5 µg/mL (≈ 0.642 µM) | 0.125 µg/mL (≈ 0.16 µM) | 0.25 µg/mL (≈ 0.321 µM) | 4 µg/mL (≈ 5.13 µM) | 0.25 µg/mL (≈ 0.321 µM) | 1.01 mg/kg
C=C[C@]1(C)C[C@@H](OC(=O)CSC2CCN(C(=O)CCn3cnc4c(N5CC(N)C5)nc(N)nc43)CC2)[C@]2(C)[C@H](C)CC[C@]3(CCC(=O)[C@@H]32)[C@@H](C)[C@@H]1O | 0.063 µg/mL (≈ 0.0855 µM) | 0.25 µg/mL (≈ 0.339 µM) | 1 µg/mL (≈ 1.36 µM) | 0.5 µg/mL (≈ 0.678 µM) | 0.063 µg/mL (≈ 0.0855 µM) | 0.25 µg/mL (≈ 0.339 µM) | 1 µg/mL (≈ 1.36 µM) | 0.125 µg/mL (≈ 0.17 µM) | 3.04 mg/kg
C=C[C@]1(C)C[C@@H](OC(=O)CSC2CCN(C(=O)CCn3cnc4c(N5CCC(CN)C5)ncnc43)CC2)[C@]2(C)[C@H](C)CC[C@]3(CCC(=O)[C@@H]32)[C@@H](C)[C@@H]1O (stereo partly drawn) | 0.008 µg/mL (≈ 0.0107 µM) | 0.125 µg/mL (≈ 0.167 µM) | 0.5 µg/mL (≈ 0.667 µM) | 0.125 µg/mL (≈ 0.167 µM) | 0.016 µg/mL (≈ 0.0213 µM) | 0.063 µg/mL (≈ 0.084 µM) | 1 µg/mL (≈ 1.33 µM) | 0.032 µg/mL (≈ 0.0427 µM) | 0.59 mg/kg
C=C[C@]1(C)C[C@@H](OC(=O)CSC2CCN(C(=O)CCn3cnc4c(N5CCNC(C)C5)nc(N)nc43)CC2)[C@]2(C)[C@H](C)CC[C@]3(CCC(=O)[C@@H]32)[C@@H](C)[C@@H]1O (stereo partly drawn) | 0.032 µg/mL (≈ 0.0418 µM) | 0.125 µg/mL (≈ 0.163 µM) | 0.25 µg/mL (≈ 0.327 µM) | 0.25 µg/mL (≈ 0.327 µM) | 0.063 µg/mL (≈ 0.0823 µM) | 0.063 µg/mL (≈ 0.0823 µM) | 2 µg/mL (≈ 2.61 µM) | 0.063 µg/mL (≈ 0.0823 µM) | 2.21 mg/kg
C=C[C@]1(C)C[C@@H](OC(=O)CSC2CCN(C(=O)CCn3cnc4c(N5CCC(N)CC5)ncnc43)CC2)[C@]2(C)[C@H](C)CC[C@]3(CCC(=O)[C@@H]32)[C@@H](C)[C@@H]1O | 0.016 µg/mL (≈ 0.0213 µM) | 0.063 µg/mL (≈ 0.084 µM) | 0.25 µg/mL (≈ 0.333 µM) | 0.125 µg/mL (≈ 0.167 µM) | 0.016 µg/mL (≈ 0.0213 µM) | 0.063 µg/mL (≈ 0.084 µM) | 4 µg/mL (≈ 5.33 µM) | 0.032 µg/mL (≈ 0.0427 µM) | 1.5 mg/kg
C=C[C@]1(C)C[C@@H](OC(=O)CSC2CCN(C(=O)CCn3cnc4c(N5CCC(N)C5)nc(N)nc43)CC2)[C@]2(C)[C@H](C)CC[C@]3(CCC(=O)[C@@H]32)[C@@H](C)[C@@H]1O (stereo partly drawn) | 0.063 µg/mL (≈ 0.0839 µM) | 0.125 µg/mL (≈ 0.166 µM) | 1 µg/mL (≈ 1.33 µM) | 0.5 µg/mL (≈ 0.666 µM) | 0.125 µg/mL (≈ 0.166 µM) | 0.25 µg/mL (≈ 0.333 µM) | 1 µg/mL (≈ 1.33 µM) | 0.125 µg/mL (≈ 0.166 µM) | 3.05 mg/kg
